The target of data set [1] is T1, rhCRTh2 (Homo sapiens, UniProt Q9Y5Y4).
T1 construct: expressed in transfected cells; host or cells: HEK cells (stably transfected, geneticin selection; expression induced with sodium butyrate); membrane preparation
T1 sequence (Q9Y5Y4 1-395): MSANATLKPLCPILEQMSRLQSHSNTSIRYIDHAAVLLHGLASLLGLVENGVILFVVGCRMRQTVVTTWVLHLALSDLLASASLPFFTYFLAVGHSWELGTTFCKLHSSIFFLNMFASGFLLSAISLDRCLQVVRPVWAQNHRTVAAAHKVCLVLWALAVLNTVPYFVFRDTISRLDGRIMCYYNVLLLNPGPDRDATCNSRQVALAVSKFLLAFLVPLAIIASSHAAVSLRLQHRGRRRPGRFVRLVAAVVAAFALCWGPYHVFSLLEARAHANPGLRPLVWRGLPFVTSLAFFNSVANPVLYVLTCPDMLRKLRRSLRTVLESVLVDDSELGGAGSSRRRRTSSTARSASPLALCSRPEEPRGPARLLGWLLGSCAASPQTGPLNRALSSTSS
Put plainly: Ligand Binding Assay ([3H]PGD2 SPA, HEK cell membranes). Particulars: [3H]PGD2 displacement, membranes of HEK cells expressing rhCRTh2/Gα16, SPA beads, 2 hours room temperature. How it is done: [^3H]PGD2 was purchased from Perkin Elmer Life Sciences with a specific activity of 100–210 Ci/mmol. All other chemicals were of analytical grade.
HEK cells expressing rhCRTh2/Gα16 were routinely maintained in DMEM containing 10% Foetal Bovine Serum (HyClone), 1 mg/ml geneticin, 2 mM L-glutamine and 1% non-essential amino acids. For the preparation of membranes, the adherent transfected HEK cells were grown to confluence in two layer tissue culture factories (Fisher, catalogue number TKT-170-070E). Maximal levels of receptor expression were induced by addition of […] sodium butyrate for the last 18 hours of culture. The adherent cells were washed once with phosphate buffered saline (PBS, 50 ml per cell factory) and detached by the addition of 50 ml per cell factory of ice-cold membrane homogenisation buffer [20 mM HEPES (pH 7.4), 0.1 mM dithiothreitol, 1 mM EDTA, 0.1 mM phenyl methyl sulphonyl fluoride and 100 μg/ml bacitracin]. […] The final pellet was re-suspended in 4 ml of membrane homogenisation buffer per cell factory used and the protein content determined. […]
All assays were performed in Corning clear bottomed, white 96-well NBS plates (Fisher). […] (The optimum coating concentrations were determined for each batch of membranes) The beads were pelleted by centrifugation (800×g for 7 minutes at 4° C.), washed once with assay buffer (50 mM HEPES pH 7.4 containing 5 mM magnesium chloride) and finally re-suspended in assay buffer at a bead concentration of 10 mg/ml.
Each assay contained 20 μl of 6.25 nM [^3H]PGD2, 20 μl membrane saturated SPA beads both in assay buffer and 10 μl of compound solution or 13,14-dihydro-15-keto prostaglandin D2 (DK-PGD2, for determination of non-specific binding, Cayman chemical company). […] The assay plate was incubated at room temperature for 2 hours and counted on a Wallac Microbeta liquid scintillation counter (1 minute per well).

Consider four compounds from patent US7166607B2, “Substituted indoles” (AstraZeneca AB, priority 2002, dated 2007).

Consider `Cc1c(Sc2ccc(Cl)cc2)c2c(N3CCN(C(=O)OC(C)(C)C)CC3)cccc2n1CC(=O)O` [Example 23, 3-[(4-chlorophenyl)thio]-4-[4-[(1,1-dimethylethoxy)carbonyl]-1-piperazinyl]-2-methyl-1H-indole-1-acetic acid], for which the melting point (commonly the temperature of the solid-liquid transition) came out at 173 °C. Further, the IC50 (in general, the concentration that gives 50% inhibition) in data set [1] is 891 nM. `COc1cccc(Sc2c(C)n(CC(=O)O)c3ccc(C)cc23)c1` [Example 29, 3-[(3-methoxyphenyl)thio]-2,5-dimethyl-1H-indole-1-acetic acid] had an IC50 in data set [1] of 4.47 nM. Same read-out and setting: under `Cc1ccc2c(c(Sc3nc(-c4ccccc4)cs3)c(C)n2CC(=O)O)c1S(C)(=O)=O` [Example 50, 2,5-dimethyl-4-(methylsulfonyl)-3-[(4-phenyl-2-thiazolyl)thio]-1H-indole-1-acetic acid] stands 63.1 nM. In the case of `COC(=O)c1ccc2c(c1)c(Sc1ccc(Cl)cc1)c(C)n2CC(=O)O` [Example 53, 3-[(4-chlorophenyl)thio]-5-(methoxycarbonyl)-2-methyl-1H-indole-1-acetic acid], the melting point is 221 to 223 °C.
